One experiment concerns rat isolated uterus. The class given is cell-based. The following applies: for AGONIST ACTIVITY: relative to Angiotensin II = 100; for agonist / antagonist character in words: footnotes of Table I. As for the experimental part: ^b = Agonist Activity was measured via a rat isolated uterus bioassay
as described by Matsoukas et al., J. Med. Chem., 31, pp. 1418-1421 (1988)
Results are reported relative to Angiotensin II wherein Angiotensin II =
Analogs of Angiotensin II were synthesized, purified and bioassayed by method described by Matsoukas et al., J. Med. Chem., 31, pp. 1418-1421 (1988). 1,2-propanediol [Pr(OH)2 ] was dried by refluxing over calcium oxide for 8 hours, collected by distillation and stored over a molecular sieve. Water content was estimated by ^1 H NMR or by the Karl Fisher method. Isopropanol (PrOH) was of HPLC grade (Caledon Laboratories Ltd) and was expected to contain less than 1% water. Dimethyl sulfoxide (DMSO) and trifluoroethanol (TFE) were used without further treatment. Aqueous solvents were prepared from distilled water which had been passed through Fisher ion-exchange cartridges. N-acetyl-tyrosine-amide (NAYA) was obtained from Sigma. Sodium dodecylsulfate (SDS) was obtained from BDH biochemicals (specially pure) and was used without further treatment.
[Sar^1 ]Angiotensin II was synthesized by the solid phase technique and purified to homogeneity by reversed-phase HPLC using methods described by Matsoukas et al., J. Med. Chem. 31(7), pp. 1418-1421 (1988). The synthetic peptide gave the required amino acid analysis and appeared as a single product in two thin layer chromatography (TLC) systems. [Sar^1 ]Angiotensin II had 180% of the bioactivity of Angiotensin II in the rat uterus assay which is also described by Matsoukas et al., supra. Since HPLC afforded the trifluoroacetate salt of the peptide, [Sar^1 ]Angiotensin II was neutralized by passage through a column (1.5×3 cm) of carboxymethylcellulose (Whatman CM23) cation exchange resin. The peptide (10 mg) was first applied to the column in 0.01M ammonium acetate at pH 5 (5 ml) and then eluted with 0.5M ammonium acetate at pH 8 (10 ml). The effluent obtained at pH 8 was lyophilized thrice and 5 mg of the product was dissolved in 0.5 ml of DMSO-d6 and two drops of D2 O were added. Argon was bubbled through the sample for 5 minutes before the NMR tube was sealed.

The nature of experiment [1]: agonist activity of oxytocin analog (assay not described).

Bridge positions count the residues as written; N and C are the ends. Square brackets hold non-standard residues; d marks the D form. Peptide text beside a SMILES is read from it. Sar = CNCC(=O)O

Consider `CC[C@H](C)[C@H](NC(=O)[C@H](Cc1ccc(O)cc1)NC(=O)[C@@H](NC(=O)[C@H](CCCNC(=N)N)NC(=O)CNC)C(C)C)C(=O)N[C@@H](Cc1ccccc1)C(=O)N1CCC[C@H]1C(=O)N[C@@H](Cc1ccccc1)C(=O)O` [C] (H-[Sar]RVYIFPF-OH), for which the “AGONIST ACTIVITY” value with rat isolated uterus amounted to 7.
As for `CC[C@H](C)[C@H](NC(=O)[C@H](Cc1ccc(O)cc1)NC(=O)[C@@H](NC(=O)[C@H](CCCNC(=N)N)NC(=O)CNC)C(C)C)C(=O)N[C@@H](Cc1c[nH]cn1)C(=O)N1CCC[C@H]1C(=O)N[C@@H](CC1CCCCC1)C(=O)O` [D], in the experiment with rat isolated uterus, the “agonist / antagonist character in words” value is reported as “Potent receptor antagonist with residual agonist activity” and the “AGONIST ACTIVITY” value came to 4.
Taken in the same sequence, the figures for `CC[C@H](C)[C@H](NC(=O)[C@H](Cc1ccc(O)cc1)NC(=O)[C@@H](NC(=O)[C@@H](N)CCCNC(=N)N)C(C)C)C(=O)N[C@@H](Cc1c[nH]cn1)C(=O)N1CCC[C@H]1C(=O)N[C@@H](CC1CCCCC1)C(=O)O` [E] were “Potent receptor antagonist with residual agonist activity” and 5.
Take `CC[C@H](C)[C@H](NC(=O)[C@H](Cc1ccc(O)cc1)NC(=O)[C@@H](NC(=O)[C@H](CCCNC(=N)N)NC(=O)CNC)C(C)C)C(=O)N[C@@H](Cc1c[nH]cn1)C(=O)N1CCC[C@H]1C(=O)N[C@@H](Cc1ccccc1)C(N)=O` [F]: the “AGONIST ACTIVITY” value in the experiment on rat isolated uterus came out at 0.2.
As to `CC[C@H](C)[C@H](NC(=O)[C@H](Cc1ccc(O)cc1)NC(=O)[C@@H](NC(=O)[C@H](CCCNC(=N)N)NC(=O)CNC)C(C)C)C(=O)N[C@@H](C)C(=O)N1CCC[C@H]1C(=O)N[C@@H](Cc1ccccc1)C(=O)O` [G] (H-[Sar]RVYIAPF-OH), the “AGONIST ACTIVITY” value in the experiment with rat isolated uterus is “less than 0.1”.
For the compound `CC[C@H](C)[C@H](NC(=O)[C@H](Cc1ccc(O)cc1)NC(=O)[C@@H](NC(=O)[C@H](CCCNC(=N)N)NC(=O)CNC)C(C)C)C(=O)N[C@@H](Cc1c[nH]cn1)C(=O)N1CCC[C@@H]1C(=O)N[C@@H](Cc1ccccc1)C(=O)O` [I], the “AGONIST ACTIVITY” value with rat isolated uterus is “less than 0.1”.
Consider `CC[C@H](C)[C@H](NC(=O)[C@@H]1CCCN1C(=O)[C@H](Cc1c[nH]cn1)NC(=O)[C@@H](NC(=O)[C@H](Cc1ccc(O)cc1)NC(=O)[C@@H](NC(=O)[C@H](CCCNC(=N)N)NC(=O)CNC)C(C)C)[C@@H](C)CC)C(=O)O` [J], for which, in the experiment on rat isolated uterus, the “agonist / antagonist character in words” value is “Potent receptor antagonist” and the “AGONIST ACTIVITY” value is given as “less than 0.1”.
Take `CC[C@H](C)[C@H](NC(=O)[C@H](Cc1ccc(O)cc1)NC(=O)[C@@H](NC(=O)[C@@H](N)CCCNC(=N)N)C(C)C)C(=O)N[C@@H](Cc1c[nH]cn1)C(=O)N1CCC[C@H]1C(=O)N[C@@H](Cc1ccccc1)C(=O)O` [K]: in the experiment on rat isolated uterus, the “AGONIST ACTIVITY” value was found to be 10.
As for `CC[C@H](C)[C@H](NC(=O)[C@H](Cc1ccc(O)cc1)NC(=O)[C@@H](NC(=O)[C@H](CCCNC(=N)N)NC(=O)CNC)C(C)C)C(=O)N[C@@H](Cc1c[nH]cn1)C(=O)N1CCC[C@H]1C(=O)N[C@@H](Cc1ccccc1)C(N)=O` [Ligand F, [Sar^1 Phe--NH2^8]Angiotensin II], the “agonist / antagonist character in words” value with rat isolated uterus is “lack of significant agonist activity”.
For the compound `CC[C@H](C)[C@H](NC(=O)[C@H](Cc1ccc(O)cc1)NC(=O)[C@@H](NC(=O)[C@H](CCCNC(=N)N)NC(=O)CNC)C(C)C)C(=O)N[C@@H](C)C(=O)N1CCC[C@H]1C(=O)N[C@@H](Cc1ccccc1)C(=O)O` [Ligand G, [Sar^1 Ala^6]Angiotensin II] (H-[Sar]RVYIAPF-OH), the “agonist / antagonist character in words” value in the experiment with rat isolated uterus is “lack of significant agonist activity”.
As for `CC[C@H](C)[C@@H]1NC(=O)[C@H](Cc2ccc(O)cc2)NC(=O)[C@@H](N)CSSC[C@@H](C(=O)N2CCC[C@H]2C(=O)N[C@@H](CC(C)C)C(=O)NCC(N)=O)NC(=O)[C@H](C)NC(=O)[C@H](CCC(N)=O)NC1=O` [[Ala^5]] (H-CYIQACPLG-NH2; disulfide 1-6), the “agonist activity in words” value in experiment [1] is “no agonist activity”.
Consider `CC[C@H](C)[C@H](NC(=O)[C@H](Cc1ccc(O)cc1)NC(=O)[C@@H](NC(=O)[C@H](CCCNC(=N)N)NC(=O)CNC)C(C)C)C(=O)N[C@@H](Cc1c[nH]cn1)C(=O)N1CCC[C@H]1C(=O)N[C@@H](Cc1ccccc1)C(=O)O` [[Sar^1]Angiotensin II, reference compound], for which the “bioactivity relative to Angiotensin II” value in the experiment with rat isolated uterus (rat uterus assay) is recorded as 180%.
As to “[Sar^1 Tyr(Me)^4 ]Angiotensin II [reference compound]”, the “AGONIST ACTIVITY” value in the experiment on rat isolated uterus is on record as 100.
The same measure, in the same setting: next, “[Tyr(Me)^4 ]Angiotensin III [B, reference compound]”: 27.

The values above are taken from patent US5459077A, “Methods for modelling tertiary structures of biologically active ligands and for modelling agonists and antagonists thereto” (PepMetics, Inc., priority 1993, dated 1995).
